Laboratory results reported in ChEMBL document CHEMBL1201862, “PubChem BioAssay data set” (2004).
Activity calls are given as the source filed them.

Columns and labels:
[1] = Luminescence Cell-Based Dose Response HTS to Identify Inhibitors of 5'UTR Stem-Loop Driven Prion Protein mRNA Translation in H4 Neuroglioblastoma Cells. [Related pubchem assays: 1827 (Project Summary), 1813 (Primary HTS)]; format: functional
[2] = inhibitors of SNCA 5'UTR-driven reporter translation, confirmation, H4 neuroglioma cells, luminescence (AID 1988); format: functional, cell-based
[3] = tested on: HEK293; assay: inhibitors of LMP1-driven NF-kB reporter, dose response, cell-based, HEK293, luciferase, cherry-pick (AID 588343); format: functional; details: Homo sapiens
[4] = biological target: T1, Latent membrane protein 1 (Human herpesvirus 4 (strain B95-8), UniProt P03230); assay: TES1-eGFP NF-kB reporter inhibition versus Tet-On dsRED, dose response, selectivity assay for LMP1 NF-kB inhibitor project, imaging, HEK293T, dual-color eGFP/dsRED, cherry-picks (AID 588398); format: functional, cell-based
T1 sequence (P03230 whole entry): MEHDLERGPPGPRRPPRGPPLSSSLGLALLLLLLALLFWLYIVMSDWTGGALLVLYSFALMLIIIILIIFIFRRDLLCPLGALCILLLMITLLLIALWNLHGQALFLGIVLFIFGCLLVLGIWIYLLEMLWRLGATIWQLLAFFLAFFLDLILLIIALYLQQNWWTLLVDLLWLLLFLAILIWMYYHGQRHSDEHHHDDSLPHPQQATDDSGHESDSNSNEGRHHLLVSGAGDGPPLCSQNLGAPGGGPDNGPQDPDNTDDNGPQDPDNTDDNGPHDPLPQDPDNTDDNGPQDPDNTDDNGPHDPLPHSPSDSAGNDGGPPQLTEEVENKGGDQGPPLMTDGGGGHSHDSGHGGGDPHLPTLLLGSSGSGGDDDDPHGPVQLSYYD

[5] = biological target: Beta-galactosidase (Escherichia coli, UniProt Q8VNN2); assay: PubChem AID 485352; format: functional
Sequence of Beta-galactosidase (Q8VNN2 whole entry): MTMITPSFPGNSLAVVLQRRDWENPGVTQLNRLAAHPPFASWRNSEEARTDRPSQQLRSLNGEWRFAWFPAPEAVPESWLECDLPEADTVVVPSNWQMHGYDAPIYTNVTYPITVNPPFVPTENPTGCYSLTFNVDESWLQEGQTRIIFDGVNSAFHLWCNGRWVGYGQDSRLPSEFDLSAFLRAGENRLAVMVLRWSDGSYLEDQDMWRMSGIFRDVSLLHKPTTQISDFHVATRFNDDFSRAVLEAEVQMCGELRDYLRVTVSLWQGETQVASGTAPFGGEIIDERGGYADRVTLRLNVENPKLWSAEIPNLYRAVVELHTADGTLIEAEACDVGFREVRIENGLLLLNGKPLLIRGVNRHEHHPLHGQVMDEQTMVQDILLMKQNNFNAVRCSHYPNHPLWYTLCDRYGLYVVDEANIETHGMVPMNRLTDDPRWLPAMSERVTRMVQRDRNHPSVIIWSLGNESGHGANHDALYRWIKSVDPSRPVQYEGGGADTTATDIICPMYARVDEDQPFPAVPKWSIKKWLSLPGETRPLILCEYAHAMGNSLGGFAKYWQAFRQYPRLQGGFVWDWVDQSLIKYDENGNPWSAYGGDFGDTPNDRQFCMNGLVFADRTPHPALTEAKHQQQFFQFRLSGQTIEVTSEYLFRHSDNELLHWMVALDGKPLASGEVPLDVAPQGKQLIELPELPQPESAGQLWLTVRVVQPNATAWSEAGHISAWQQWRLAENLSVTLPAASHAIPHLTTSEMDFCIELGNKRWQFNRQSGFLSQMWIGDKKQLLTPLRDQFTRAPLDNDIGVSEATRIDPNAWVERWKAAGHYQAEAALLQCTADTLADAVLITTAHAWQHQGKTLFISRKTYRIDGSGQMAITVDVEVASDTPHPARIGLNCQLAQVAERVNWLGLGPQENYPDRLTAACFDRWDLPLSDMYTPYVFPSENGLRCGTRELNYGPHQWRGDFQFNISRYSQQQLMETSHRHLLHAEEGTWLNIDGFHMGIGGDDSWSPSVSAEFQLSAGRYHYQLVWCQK

[6] = biological target: T2, Type-1 angiotensin II receptor (Homo sapiens, UniProt P30556); assay: AT1 receptor antagonists, dose response, selectivity assay for APJ receptor antagonist project, cell-based, uHTS hits (AID 463214); format: functional;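 further: antagonist potency against angiotensin II stimulated AT1 response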
T2 sequence (P30556 whole entry): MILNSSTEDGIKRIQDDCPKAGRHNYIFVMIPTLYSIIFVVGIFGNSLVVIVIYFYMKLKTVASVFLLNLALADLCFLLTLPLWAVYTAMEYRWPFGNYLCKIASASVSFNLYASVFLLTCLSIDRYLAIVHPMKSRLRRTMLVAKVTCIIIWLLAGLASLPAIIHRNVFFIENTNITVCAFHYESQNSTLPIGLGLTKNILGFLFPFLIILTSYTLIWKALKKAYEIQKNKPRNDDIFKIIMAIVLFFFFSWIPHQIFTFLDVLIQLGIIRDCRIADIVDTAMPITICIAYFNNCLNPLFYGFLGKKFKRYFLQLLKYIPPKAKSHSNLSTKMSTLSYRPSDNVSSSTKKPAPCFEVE

[7] = biological target: T3, Fatty acid synthase (Homo sapiens, UniProt P49327); assay: FAS thioesterase domain inhibitors, dose response, biochemical, endpoint fluorescence intensity, uHTS hits (AID 624327); format: functional;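 further: fluorescence from hydrolysis of an O-methyl fluorescein acyl ester substrate by the enzyme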
T3 sequence (P49327 whole entry, the tested form may be a part): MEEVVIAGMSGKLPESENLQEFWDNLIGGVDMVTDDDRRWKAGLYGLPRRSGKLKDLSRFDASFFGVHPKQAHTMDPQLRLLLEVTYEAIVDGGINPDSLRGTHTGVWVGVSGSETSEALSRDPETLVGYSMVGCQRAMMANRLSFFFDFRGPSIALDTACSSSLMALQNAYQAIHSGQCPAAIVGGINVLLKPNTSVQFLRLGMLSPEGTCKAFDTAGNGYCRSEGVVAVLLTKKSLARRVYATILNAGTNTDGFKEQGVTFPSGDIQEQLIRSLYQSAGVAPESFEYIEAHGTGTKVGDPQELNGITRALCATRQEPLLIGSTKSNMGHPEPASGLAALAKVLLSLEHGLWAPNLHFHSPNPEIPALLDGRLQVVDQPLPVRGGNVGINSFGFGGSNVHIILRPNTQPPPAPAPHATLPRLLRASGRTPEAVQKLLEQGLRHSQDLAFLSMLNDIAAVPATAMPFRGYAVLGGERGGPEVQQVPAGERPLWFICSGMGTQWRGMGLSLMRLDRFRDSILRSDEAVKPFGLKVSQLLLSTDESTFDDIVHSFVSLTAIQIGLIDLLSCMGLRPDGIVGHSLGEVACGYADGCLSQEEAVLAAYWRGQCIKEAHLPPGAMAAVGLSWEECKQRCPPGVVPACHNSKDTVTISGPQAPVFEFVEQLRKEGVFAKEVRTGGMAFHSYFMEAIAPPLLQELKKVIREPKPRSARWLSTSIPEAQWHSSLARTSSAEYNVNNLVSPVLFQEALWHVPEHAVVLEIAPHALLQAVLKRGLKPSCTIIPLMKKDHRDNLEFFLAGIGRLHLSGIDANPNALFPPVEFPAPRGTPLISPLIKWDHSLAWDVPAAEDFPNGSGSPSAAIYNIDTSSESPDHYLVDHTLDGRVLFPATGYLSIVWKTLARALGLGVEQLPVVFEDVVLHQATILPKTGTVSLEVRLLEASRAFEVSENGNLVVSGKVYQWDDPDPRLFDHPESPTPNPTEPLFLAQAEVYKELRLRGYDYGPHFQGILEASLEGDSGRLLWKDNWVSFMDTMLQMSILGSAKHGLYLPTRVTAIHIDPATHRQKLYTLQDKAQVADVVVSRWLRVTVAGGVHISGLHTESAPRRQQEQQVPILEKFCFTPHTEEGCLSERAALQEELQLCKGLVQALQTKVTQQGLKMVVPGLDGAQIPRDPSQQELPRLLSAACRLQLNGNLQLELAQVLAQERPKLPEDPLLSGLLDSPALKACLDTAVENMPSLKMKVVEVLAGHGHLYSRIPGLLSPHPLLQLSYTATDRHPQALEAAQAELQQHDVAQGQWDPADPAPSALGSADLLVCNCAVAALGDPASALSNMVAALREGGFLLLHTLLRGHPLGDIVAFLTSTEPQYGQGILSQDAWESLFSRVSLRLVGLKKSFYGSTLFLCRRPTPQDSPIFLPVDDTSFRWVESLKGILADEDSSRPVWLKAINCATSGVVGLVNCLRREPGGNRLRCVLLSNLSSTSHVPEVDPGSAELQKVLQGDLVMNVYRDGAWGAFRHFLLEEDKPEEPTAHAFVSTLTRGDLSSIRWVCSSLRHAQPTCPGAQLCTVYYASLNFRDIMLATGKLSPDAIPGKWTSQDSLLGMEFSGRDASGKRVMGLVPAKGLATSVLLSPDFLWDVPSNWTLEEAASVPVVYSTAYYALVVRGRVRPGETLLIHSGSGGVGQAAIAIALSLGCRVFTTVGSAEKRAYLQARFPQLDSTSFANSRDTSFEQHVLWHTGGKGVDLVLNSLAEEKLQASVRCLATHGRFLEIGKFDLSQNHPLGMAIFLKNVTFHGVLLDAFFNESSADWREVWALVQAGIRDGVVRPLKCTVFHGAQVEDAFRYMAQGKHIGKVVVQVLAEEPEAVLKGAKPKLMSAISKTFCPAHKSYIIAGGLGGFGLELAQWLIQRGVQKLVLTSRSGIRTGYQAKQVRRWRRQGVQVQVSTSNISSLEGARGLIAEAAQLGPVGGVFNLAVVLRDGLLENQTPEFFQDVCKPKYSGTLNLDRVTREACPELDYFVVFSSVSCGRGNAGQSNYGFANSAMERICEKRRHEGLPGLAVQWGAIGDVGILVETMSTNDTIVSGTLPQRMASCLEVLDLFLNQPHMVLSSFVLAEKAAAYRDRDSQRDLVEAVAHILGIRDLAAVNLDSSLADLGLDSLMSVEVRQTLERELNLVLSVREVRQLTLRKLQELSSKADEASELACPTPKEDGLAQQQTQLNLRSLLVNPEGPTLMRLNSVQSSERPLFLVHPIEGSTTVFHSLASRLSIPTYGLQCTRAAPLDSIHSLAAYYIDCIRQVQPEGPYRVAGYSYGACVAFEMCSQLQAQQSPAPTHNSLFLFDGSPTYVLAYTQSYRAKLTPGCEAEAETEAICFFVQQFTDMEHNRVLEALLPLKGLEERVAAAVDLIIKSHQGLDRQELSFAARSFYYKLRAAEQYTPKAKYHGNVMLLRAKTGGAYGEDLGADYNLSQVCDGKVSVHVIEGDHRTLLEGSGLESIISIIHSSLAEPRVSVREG

[8] = biological target: T3, Fatty acid synthase; assay: FAS thioesterase domain inhibitors, dose response, biochemical, kinetic fluorescence intensity (AID 624326); format: functional;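 further: rate of fluorescence rise from hydrolysis of a fluorogenic O-methyl fluorescein ester substrate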
[9] = HEp-2 cell cytotoxicity, dose response, cytotoxicity control for RSV inhibitor project, HTS (AID 2410); format: functional; details: human respiratory syncytial virus
[10] = biological target: T4, Apoptotic protease-activating factor 1 (Homo sapiens, UniProt O14727); format: functional
T4 sequence (O14727 whole entry): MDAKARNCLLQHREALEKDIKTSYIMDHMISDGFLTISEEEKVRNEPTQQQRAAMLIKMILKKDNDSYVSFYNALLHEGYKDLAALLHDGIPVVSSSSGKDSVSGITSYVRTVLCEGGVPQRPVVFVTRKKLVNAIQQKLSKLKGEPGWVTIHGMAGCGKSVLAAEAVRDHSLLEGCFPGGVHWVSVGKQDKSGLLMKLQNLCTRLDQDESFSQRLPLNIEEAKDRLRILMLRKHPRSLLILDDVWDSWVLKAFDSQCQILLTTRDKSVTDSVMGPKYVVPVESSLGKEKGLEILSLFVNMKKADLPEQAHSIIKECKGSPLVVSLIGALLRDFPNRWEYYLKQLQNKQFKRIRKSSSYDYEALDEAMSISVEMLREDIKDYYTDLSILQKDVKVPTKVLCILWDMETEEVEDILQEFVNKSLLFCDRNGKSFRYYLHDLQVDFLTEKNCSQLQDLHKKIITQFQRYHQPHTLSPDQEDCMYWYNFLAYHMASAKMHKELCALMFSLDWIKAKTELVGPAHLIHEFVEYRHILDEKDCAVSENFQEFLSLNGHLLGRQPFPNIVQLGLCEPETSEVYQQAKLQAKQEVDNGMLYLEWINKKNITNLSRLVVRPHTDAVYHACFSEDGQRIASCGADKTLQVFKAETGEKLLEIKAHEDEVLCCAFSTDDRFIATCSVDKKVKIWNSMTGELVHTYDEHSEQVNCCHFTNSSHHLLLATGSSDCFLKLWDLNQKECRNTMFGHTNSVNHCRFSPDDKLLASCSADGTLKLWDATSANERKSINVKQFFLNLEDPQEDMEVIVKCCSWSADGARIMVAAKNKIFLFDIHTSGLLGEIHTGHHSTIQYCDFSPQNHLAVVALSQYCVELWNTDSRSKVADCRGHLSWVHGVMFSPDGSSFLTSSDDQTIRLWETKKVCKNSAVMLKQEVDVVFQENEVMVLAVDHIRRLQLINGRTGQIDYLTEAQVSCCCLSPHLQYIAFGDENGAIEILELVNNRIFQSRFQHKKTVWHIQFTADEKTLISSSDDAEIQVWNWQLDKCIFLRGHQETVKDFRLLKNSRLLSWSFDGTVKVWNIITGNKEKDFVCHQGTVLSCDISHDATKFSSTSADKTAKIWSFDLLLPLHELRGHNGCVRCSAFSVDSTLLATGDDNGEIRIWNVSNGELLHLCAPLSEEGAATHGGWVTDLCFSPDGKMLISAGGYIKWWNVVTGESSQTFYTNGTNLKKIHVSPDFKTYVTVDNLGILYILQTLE

[11] = biological target: T5, Sentrin-specific protease 8 (Homo sapiens, UniProt Q96LD8); assay: SENP8 protease inhibitors, SAR follow-up, biochemical, luminescence (AID 504501); format: functional
T5 sequence (Q96LD8 whole entry): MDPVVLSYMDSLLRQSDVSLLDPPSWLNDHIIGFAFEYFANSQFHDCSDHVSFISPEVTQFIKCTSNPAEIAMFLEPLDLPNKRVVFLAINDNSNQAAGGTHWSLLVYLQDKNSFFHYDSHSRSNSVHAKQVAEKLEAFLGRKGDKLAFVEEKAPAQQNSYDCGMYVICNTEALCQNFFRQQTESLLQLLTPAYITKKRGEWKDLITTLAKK

[12] = biological target: T6, Caspase-3 (Homo sapiens, UniProt P42574); assay: caspase-3 inhibitors as off-family protease, SAR follow-up, selectivity assay for SENP protease inhibitor project, biochemical, luminescence, set 2 (AID 588599); format: functional
T6 sequence (P42574 whole entry): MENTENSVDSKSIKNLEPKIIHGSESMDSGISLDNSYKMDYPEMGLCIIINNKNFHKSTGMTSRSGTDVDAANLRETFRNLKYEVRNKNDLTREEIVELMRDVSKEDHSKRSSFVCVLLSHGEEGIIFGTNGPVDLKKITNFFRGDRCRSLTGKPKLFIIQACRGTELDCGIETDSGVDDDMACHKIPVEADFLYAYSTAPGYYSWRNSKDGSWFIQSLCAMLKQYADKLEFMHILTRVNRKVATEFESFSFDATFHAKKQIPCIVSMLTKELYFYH

[13] = biological target: T5, Sentrin-specific protease 8; assay: SENP8 protease inhibitors, SAR follow-up, biochemical, luminescence, set 2 (AID 588601); format: functional
[14] = biological target: T6, Caspase-3; assay: SAR Analysis of small molecule inhibitors of Sentrin-specific proteases (SENPs) using a Caspase-3 Selectivity assay. [Related pubchem assays (depositor defined):AID2540, AID2599, AID434973, AID489001]; format: functional
[15] = biological target: T7, Sentrin-specific protease 7 (Homo sapiens, UniProt Q9BQF6); assay: SENP7 protease inhibitors, SAR follow-up, biochemical, luminescence, set 2 (AID 588600); format: functional
T7 sequence (Q9BQF6 whole entry): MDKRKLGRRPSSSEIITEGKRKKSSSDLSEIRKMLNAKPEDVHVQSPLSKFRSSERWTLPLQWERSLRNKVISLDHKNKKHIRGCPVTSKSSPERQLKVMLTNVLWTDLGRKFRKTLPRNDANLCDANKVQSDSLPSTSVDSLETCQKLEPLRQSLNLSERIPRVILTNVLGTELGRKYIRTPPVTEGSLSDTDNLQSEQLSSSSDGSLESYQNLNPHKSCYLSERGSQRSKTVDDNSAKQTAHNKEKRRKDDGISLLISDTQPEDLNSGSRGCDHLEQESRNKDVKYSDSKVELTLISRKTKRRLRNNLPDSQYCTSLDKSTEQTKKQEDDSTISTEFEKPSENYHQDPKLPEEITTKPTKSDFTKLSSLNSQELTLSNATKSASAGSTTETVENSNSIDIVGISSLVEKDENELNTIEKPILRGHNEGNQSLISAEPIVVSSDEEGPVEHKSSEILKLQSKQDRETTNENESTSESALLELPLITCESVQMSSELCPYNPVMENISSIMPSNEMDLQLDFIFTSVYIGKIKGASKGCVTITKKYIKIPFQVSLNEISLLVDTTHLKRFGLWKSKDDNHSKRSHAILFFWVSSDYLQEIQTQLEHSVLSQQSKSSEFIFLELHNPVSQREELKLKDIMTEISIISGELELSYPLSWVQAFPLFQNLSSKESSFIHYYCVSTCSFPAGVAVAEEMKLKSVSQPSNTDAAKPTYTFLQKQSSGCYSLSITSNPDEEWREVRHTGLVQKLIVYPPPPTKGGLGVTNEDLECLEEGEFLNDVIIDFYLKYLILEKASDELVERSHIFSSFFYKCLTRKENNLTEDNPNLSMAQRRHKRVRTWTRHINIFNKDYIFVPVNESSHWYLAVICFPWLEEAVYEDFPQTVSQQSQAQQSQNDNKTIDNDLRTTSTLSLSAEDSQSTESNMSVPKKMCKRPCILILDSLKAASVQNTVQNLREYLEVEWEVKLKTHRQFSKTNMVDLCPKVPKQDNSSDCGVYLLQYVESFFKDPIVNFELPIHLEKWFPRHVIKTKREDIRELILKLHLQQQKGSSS

[16] = biological target: T8, Sentrin-specific protease 6 (Homo sapiens, UniProt Q9GZR1); assay: SAR Analysis of small molecule inhibitors of Sentrin-specific protease 6 (SENP6) using a Luminescent assay. [Related pubchem assays (depositor defined):AID2582, AID2599]; format: functional
T8 sequence (Q9GZR1 whole entry): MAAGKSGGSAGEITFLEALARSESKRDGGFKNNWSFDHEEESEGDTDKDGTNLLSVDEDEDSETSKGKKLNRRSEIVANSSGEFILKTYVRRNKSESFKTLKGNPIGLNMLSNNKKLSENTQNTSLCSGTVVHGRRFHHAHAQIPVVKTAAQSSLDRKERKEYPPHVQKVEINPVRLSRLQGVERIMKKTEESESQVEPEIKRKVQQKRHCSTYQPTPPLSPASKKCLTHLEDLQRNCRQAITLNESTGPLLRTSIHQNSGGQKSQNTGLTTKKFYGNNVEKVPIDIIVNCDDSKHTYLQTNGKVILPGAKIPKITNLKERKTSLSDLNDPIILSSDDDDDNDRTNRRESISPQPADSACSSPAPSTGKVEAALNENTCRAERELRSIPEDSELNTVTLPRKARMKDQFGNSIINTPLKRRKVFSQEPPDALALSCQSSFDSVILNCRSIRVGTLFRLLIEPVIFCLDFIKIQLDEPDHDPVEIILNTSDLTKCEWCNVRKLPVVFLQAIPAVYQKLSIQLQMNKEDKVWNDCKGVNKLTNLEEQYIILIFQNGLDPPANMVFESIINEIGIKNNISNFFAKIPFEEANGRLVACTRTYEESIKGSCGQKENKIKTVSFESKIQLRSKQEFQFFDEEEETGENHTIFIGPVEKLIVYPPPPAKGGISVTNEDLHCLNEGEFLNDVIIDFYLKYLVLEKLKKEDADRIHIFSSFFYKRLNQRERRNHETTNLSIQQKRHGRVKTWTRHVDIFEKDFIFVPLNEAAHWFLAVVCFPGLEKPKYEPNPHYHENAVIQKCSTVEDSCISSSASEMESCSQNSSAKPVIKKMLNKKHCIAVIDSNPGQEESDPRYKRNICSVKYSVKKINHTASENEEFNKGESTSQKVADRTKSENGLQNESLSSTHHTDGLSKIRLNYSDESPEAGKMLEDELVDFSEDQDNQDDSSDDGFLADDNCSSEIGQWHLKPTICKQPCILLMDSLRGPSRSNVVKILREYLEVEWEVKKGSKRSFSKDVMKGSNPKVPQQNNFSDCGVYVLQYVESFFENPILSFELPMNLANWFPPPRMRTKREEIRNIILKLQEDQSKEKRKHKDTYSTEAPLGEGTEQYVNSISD

[17] = biological target: T7, Sentrin-specific protease 7; assay: SENP7 protease inhibitors, SAR follow-up, biochemical, luminescence (AID 504497); format: functional

Q: With `Cc1ccc(NC(=O)c2ccc3c(c2)OCCO3)nc1` as the molecule, how does the EC50 [1] read?
A: 11.3 µM (active)

Q: And the EC50 [2]?
A: 8.65 µM (inconclusive)

Q: And the AC50 [3]?
A: 2.56 µM (active)

Q: What about the AC50 [4] of the same molecule?
A: 186 µM (active)

Q: What does the source list for `O=C(CCc1ccccc1)OCC(=O)c1cccc([N+](=O)[O-])c1`?
A: EC50 [5]: > 40 µM (inactive); IC50 [6]: 19.2 µM (active); IC50 [7]: 11.3 µM (active); IC50 [8]: 9.4 µM (active)

Q: What does the source list for `COc1ccc(-n2nc3ccc(N)cc3n2)cc1Cl`?
A: CC50 [9]: 47.1 µM (active); IC50 [10]: > 100 µM (inactive)

Q: Which IC50 [11] does the source give for `O=C(Nc1nc2ccc(Cl)cc2s1)c1cccs1` here?
A: 1.5 µM (active)

Q: What about the IC50 [12] of the same molecule?
A: 2.07 µM (active)

Q: And the IC50 [13]?
A: 1.25 µM (active)

Q: And the IC50 [14]?
A: 2 µM (active)

Q: What about the IC50 [15] of the same molecule?
A: 1.39 µM (active)

Q: What about the IC50 [16] of the same molecule?
A: 1.3 µM (active)

Q: What about the IC50 [17] of the same molecule?
A: 1.2 µM (active)

Q: With `CC(=NNC(=S)N1CCCC1)c1ccccn1` as the molecule, how does the AC50 [3] read?
A: 0.0151 µM (active)

Q: What about the AC50 [4] of the same molecule?
A: 0.444 µM (active)

Q: For `O=C(CCNS(=O)(=O)c1ccccc1)NCCSc1ccc(Br)cc1`, which IC50 [10] is on record?
A: > 100 µM (inactive)
